In patent US20060069132A1, “Azolecarboxamide herbicides” (priority 2004, published 2006):

Legend:
[1] = tested on: giant foxtail; test: Test B pre-/postemergence herbicide test; assay type: in vivo, Setaria faberi; conditions: for Foxtail, Giant plant response rating: postemergence
How it was run: (§1)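 Pre: seeds sown, then sprayed. Post: 1–4-leaf plants (2–18 cm) sprayed at the same time. Paddy: flooded, treated at 2-leaf stage. Formulation: non-phytotoxic solvent with surfactant. Greenhouse 13–15 days; visual 0–100 score relative to controls.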

[2] = tested on: blackgrass; test: Test B postemergence herbicide test; assay type: in vivo, Alopecurus myosuroides; conditions: postemergence
How it was run: (§2)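 Visual control ratings, 0–100 versus untreated controls, taken after 13 to 15 days in the greenhouse. Blackgrass received a postemergence spray at the 1- to 4-leaf stage (2–18 cm); ducksalad, umbrella sedge and barnyardgrass were flooded-paddy treated at 2 leaves.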

[3] = tested on: wild oat; test: Test B postemergence herbicide test; assay type: in vivo, Avena fatua; conditions: postemergence
How it was run: (§3)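 Formulated test chemicals went onto postemergence plants measuring 2 to 18 cm, at one to four leaves. For the paddy assay, species had reached two leaves. Scoring took place 13–15 days later by eye, relative to untreated plants, using 0 for no effect up to 100 for full control.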

[4] = tested on: pigweed; test: Test B pre-/postemergence herbicide test; assay type: in vivo, Amaranthus retroflexus; conditions: for Pigweed plant response rating: postemergence
How it was run: as §1

[5] = tested on: velvetleaf; test: Test B pre-/postemergence herbicide test; assay type: in vivo, Abutilon theophrasti; conditions: for Velvetleaf plant response rating: postemergence
How it was run: as §1

[6] = tested on: Surinam grass; test: Test B pre-/postemergence herbicide test; assay type: in vivo, Urochloa decumbens; conditions: for Surinam Grass plant response rating: postemergence
How it was run: as §1

[7] = tested on: lambsquarters; test: Test B pre-/postemergence herbicide test; assay type: in vivo, Chenopodium album; conditions: for Lambsquarters plant response rating: postemergence
How it was run: as §1

[8] = tested on: corn; test: Test B pre-/postemergence herbicide test; assay type: in vivo, Zea mays; conditions: for Corn plant response rating: postemergence
How it was run: as §1

[9] = tested on: small flower umbrella sedge; test: Test B flooded paddy test; assay type: in vivo, Cyperus difformis; conditions: 1000 g ai/ha, scale 0 to 100 (0 no effect, 100 complete control)
How it was run: as §2

[10] = tested on: wheat; test: Test B postemergence herbicide test; assay type: in vivo, Triticum aestivum; set-up: key to Wheat plant response rating: 0 = no effect, 100 = complete control; conditions: postemergence
How it was run: as §3

[11] = tested on: barnyardgrass; test: Test B pre-/postemergence herbicide test; assay type: in vivo, Echinochloa crus-galli; conditions: for Barnyardgrass plant response rating: postemergence
How it was run: (§4)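 Response was scored visually 13 to 15 days after treatment against untreated greenhouse controls, 0 meaning no effect and 100 complete control. Formulations (solvent mixture plus surfactant) went onto soil after planting, onto foliage of 1- to 4-leaf plants, and onto 2-leaf plants in a flooded paddy set including rice and barnyardgrass.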

[12] = tested on: rice; test: Test B pre-/postemergence herbicide test; assay type: in vivo, Oryza sativa; conditions: 0 = no effect, 100 = complete control, preemergence
How it was run: as §1

[13] = tested on: morningglory; test: Test B pre-/postemergence herbicide test; assay type: in vivo, Ipomoea coccinea; conditions: for Morningglory plant response rating: postemergence
How it was run: as §4

[14] = tested on: ducksalad; test: Test B flooded paddy test; assay type: in vivo, Heteranthera limosa; conditions: 1000 g ai/ha, scale 0 to 100 (0 no effect, 100 complete control)
How it was run: as §2

[15] = tested on: cocklebur; test: Test B pre-/postemergence herbicide test; assay type: in vivo, Xanthium strumarium; conditions: for Cocklebur plant response rating: postemergence
How it was run: as §4

[16] = tested on: large crabgrass; test: Test B pre-/postemergence herbicide test; assay type: in vivo, Digitaria sanguinalis; conditions: for Crabgrass, Large plant response rating: postemergence
How it was run: as §1

[17] = tested on: barnyardgrass; test: Test B flooded paddy test; assay type: in vivo, Echinochloa crus-galli; conditions: 1000 g ai/ha, scale 0 to 100 (0 no effect, 100 complete control)
How it was run: as §2

[18] = tested on: rice; test: Test B flooded paddy test; assay type: in vivo, Oryza sativa; conditions: 1000 g ai/ha, scale 0 to 100 (0 no effect, 100 complete control)
How it was run: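 Plants grow to 1- to 4-leaf stage (2–18 cm) for postemergence spraying, or to 2-leaf stage for the paddy test. Formulated compound is applied. Greenhouse holding lasts 13–15 days. Response is scored visually relative to controls, 0 no effect to 100 complete control; a dash means no result.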

[19] = 125 g ai/ha, 0 = no effect, 100 = complete control, preemergence
[20] = 125 g ai/ha, visual rating, scale 0 (no effect) to 100 (complete control)
[21] = 500 g ai/ha, visual rating, 0 = no effect, 100 = complete control, preemergence
[22] = 500 g ai/ha, scale 0 to 100, 0 is no effect, 100 is complete control

`CCc1nn(C(C)(C)C)cc1C(=O)Nc1cccc(C(=O)N(C)C)n1` [Compound 292] was tested, and the “Foxtail, Giant plant response rating (0 to 100 scale)” value [1, 19] was 0, the “Foxtail, Giant plant response rating” value [1, 20] was 0 and the “Plant response rating, Foxtail, Giant” value [1, 21] was 70. For the same molecule, the “Foxtail, Giant plant response rating” value [1, 22] was 20, the “Blackgrass plant response rating” value [2, 20] was 10 and the “Blackgrass plant response rating” value [2, 22] was 20. The “Oat, Wild plant response rating” value [3, 20] was 10, the “Oat, Wild plant response rating” value [3, 22] was 40 and the “Pigweed plant response rating (0 to 100 scale)” value [4, 19] was 40. For the same molecule, the “Pigweed plant response rating” value [4, 20] was 20, the “Plant response rating, Pigweed” value [4, 21] was 100 and the “Pigweed plant response rating” value [4, 22] was 30. The “Velvetleaf plant response rating” value [5, 20] was 10, the “Plant response rating, Velvetleaf” value [5, 21] was 70 and the “Velvetleaf plant response rating” value [5, 22] was 10. The “Surinam Grass plant response rating (0 to 100 scale)” value [6, 19] was 20, the “Surinam Grass plant response rating” value [6, 20] was 0 and the “Plant response rating, Surinam Grass” value [6, 21] was 100. The “Surinam Grass plant response rating” value [6, 22] was 20, the “Lambsquarters plant response rating (0 to 100 scale)” value [7, 19] was 70 and the “Lambsquarters plant response rating” value [7, 20] was 30. For the same molecule, the “Plant response rating, Lambsquarters” value [7, 21] was 100, the “Lambsquarters plant response rating” value [7, 22] was 70 and the “Corn plant response rating (0 to 100 scale)” value [8, 19] was 0. The “Corn plant response rating” value [8, 20] was 10, the “Plant response rating, Corn” value [8, 21] was 80 and the “Corn plant response rating” value [8, 22] was 20. For the same molecule, the “Sedge, Umbrella plant response rating” value [9] was 60, the “Wheat plant response rating” value [10, 20] was 0 and the “Wheat plant response rating” value [10, 22] was 20. For the same molecule, the “Barnyardgrass plant response rating (0 to 100 scale)” value [11, 19] was 10, the “Barnyardgrass plant response rating” value [11, 20] was 0 and the “Plant response rating, Barnyardgrass” value [11, 21] was 90. For the same molecule, the “Barnyardgrass plant response rating” value [11, 22] was 0, the “Rice plant response rating (0 to 100 scale)” value ([12]; 125 g ai/ha) was 0 and the “Plant response rating, Rice” value ([12]; 500 g ai/ha, visual rating) was 90. The “Morningglory plant response rating (0 to 100 scale)” value [13, 19] was 0, the “Morningglory plant response rating” value [13, 20] was 0 and the “Plant response rating, Morningglory” value [13, 21] was 30. For the same molecule, the “Morningglory plant response rating” value [13, 22] was 20, the “Ducksalad plant response rating” value [14] was 0 and the “Cocklebur plant response rating (0 to 100 scale)” value [15, 19] was 0. The “Cocklebur plant response rating” value [15, 20] was 0, the “Plant response rating, Cocklebur” value [15, 21] was 40 and the “Cocklebur plant response rating” value [15, 22] was 10. The “Crabgrass, Large plant response rating (0 to 100 scale)” value [16, 19] was 80, the “Crabgrass, Large plant response rating” value [16, 20] was 0 and the “Plant response rating, Crabgrass, Large” value [16, 21] was 100. The “Crabgrass, Large plant response rating” value [16, 22] was 10, the “Barnyardgrass plant response rating” value [17] was 20 and the “Rice plant response rating” value [18] was 30.
